Data published in the supplement of paper PMC10307832.

Columns and labels:
Assay in all cases: relative viability (nuclei count vs DMSO), 5 days (fraction); higher = more cells survive
AZ3146 + Phenformin = compound: CN1CCC(CC1)OC2=CC(=C(C=C2)NC3=NC=C4C(=N3)N(C(=O)N4C)C5CCCC5)OC [AZ3146] + N=C(N)NC(=N)NCCc1ccccc1 [Phenformin] (partner 250 µM)
How it was run: (§1)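 Five library-drug doses in √10 steps were combined with a fixed anchor-drug dose, or a single drug was given alone, by pin tool to lung cancer cell lines in 1536-well plates the day after seeding. Nuclei were stained and counted after 5 days. Relative viability is the nuclei count in treated wells over that in vehicle wells, taken as the median of duplicate plates.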

GSK-J4 + Dasatinib = compound: CCOC(=O)CCNc1cc(N2CCc3ccccc3CC2)nc(-c2ccccn2)n1 [GSK-J4] + Cc1nc(Nc2ncc(C(=O)Nc3c(C)cccc3Cl)s2)cc(N2CCN(CCO)CC2)n1 [Dasatinib] (partner 0.075 µM)
How it was run: as §1

AZ3146 + Foretinib = compound: CN1CCC(CC1)OC2=CC(=C(C=C2)NC3=NC=C4C(=N3)N(C(=O)N4C)C5CCCC5)OC [AZ3146] + COc1cc2c(Oc3ccc(NC(=O)C4(C(=O)Nc5ccc(F)cc5)CC4)cc3F)ccnc2cc1OCCCN1CCOCC1 [Foretinib] (partner 0.25 µM)
How it was run: as §1

GSK-J4 + Alpelisib = compound: CCOC(=O)CCNc1cc(N2CCc3ccccc3CC2)nc(-c2ccccn2)n1 [GSK-J4] + Cc1nc(NC(=O)N2CCC[C@H]2C(N)=O)sc1-c1ccnc(C(C)(C)C(F)(F)F)c1 [Alpelisib] (partner 2 µM)
How it was run: as §1

Row | Cell Line | relative viability (AZ3146 + Phenformin; first compound 0.08 µM) | relative viability (AZ3146 + Phenformin; first compound 0.253 µM) | relative viability (AZ3146 + Phenformin; first compound 0.8 µM) | relative viability (AZ3146 + Phenformin; first compound 2.53 µM) | relative viability (AZ3146 + Phenformin; first compound 8 µM) | relative viability (GSK-J4 + Dasatinib; first compound 0.5 µM) | relative viability (GSK-J4 + Dasatinib; first compound 1.581 µM) | relative viability (GSK-J4 + Dasatinib; first compound 15.81 µM) | relative viability (GSK-J4 + Dasatinib; first compound 50 µM) | relative viability (AZ3146 + Foretinib; first compound 0.08 µM) | relative viability (AZ3146 + Foretinib; first compound 0.253 µM) | relative viability (AZ3146 + Foretinib; first compound 0.8 µM) | relative viability (AZ3146 + Foretinib; first compound 2.53 µM) | relative viability (AZ3146 + Foretinib; first compound 8 µM) | relative viability (GSK-J4 + Alpelisib; first compound 0.5 µM) | relative viability (GSK-J4 + Alpelisib; first compound 1.581 µM) | relative viability (GSK-J4 + Alpelisib; first compound 15.81 µM) | relative viability (GSK-J4 + Alpelisib; first compound 50 µM) | relative viability (GSK-J4 + Dasatinib; first compound 5 µM) | relative viability (GSK-J4 + Alpelisib; first compound 5 µM)
1 | HCC-366 | 0.58 | 0.544 | 0.607 | 0.601 | 0.587 | 0.597 | 0.537 | 0.415 | 0.501 | 0.791 | 0.924 | 0.908 | 0.974 | 0.178 | 0.391 | 0.25 | 0.305 | 0.365 |  | 
2 | HCC-827 | 0.443 | 0.372 | 0.401 | 0.416 | 0.348 | 0.335 | 0.356 | 0.312 | 0.289 | 1.08 | 1 | 1.03 | 1.03 | 1.09 | 0.981 | 1 | 0.915 | 0.939 | 0.435 | 1.02
3 | HOP-62 | 0.567 | 0.697 | 0.604 | 0.647 | 0.523 | 0.625 | 0.639 | 0.567 | 0.525 | 1.06 | 1.16 | 1.01 | 1.11 | 1.08 | 0.956 | 1.01 | 0.912 | 0.859 | 0.269 | 1.12
4 | IA-LM |  |  |  |  |  |  |  |  |  | 1.21 | 1.36 | 1.33 | 1.08 | 0.285 | 0.77 | 0.693 | 0.693 | 0.149 |  | 0.887
5 | LC-2-ad | 0.54 | 0.557 | 0.614 | 0.628 | 0.609 | 0.689 | 0.429 | 0.44 | 0.351 | 0.735 | 0.905 | 1.06 | 0.935 | 0.878 | 0.725 | 0.764 | 0.877 | 0.87 | 0.535 | 0.857
6 | LCLC-97TM1 | 0.386 | 0.411 | 0.326 | 0.433 | 0.448 | 0.596 | 0.724 | 0.825 | 0.555 | 0.936 | 0.96 | 0.879 | 0.942 | 0.806 |  |  | 0.24 | 0.164 | 0.951 | 0.271
7 | LCLC-103H | 0.317 | 0.32 | 0.348 | 0.363 | 0.38 | 0.406 | 0.428 | 0.281 | 0.45 | 0.749 | 0.81 | 0.749 | 0.966 | 0.657 | 0.934 | 0.859 | 0.986 | 1.11 | 0.256 | 1.09
8 | LK-2 | 0.397 | 0.392 | 0.292 | 0.409 | 0.295 | 0.354 |  | 0.229 | 0.241 | 0.934 | 1.21 | 1.7 | 1.46 | 1.3 | 1.04 | 1.08 | 1.3 | 1.23 | 0.267 | 1.41
9 | LOU-NH91 | 0.736 | 0.565 | 0.768 | 0.761 | 0.76 | 0.65 | 0.612 | 0.506 | 0.631 | 0.967 | 0.902 | 1.01 | 0.931 | 0.948 | 0.743 | 0.689 | 0.688 | 0.672 | 0.432 | 0.649
10 | LU99A | 0.687 | 0.841 | 0.676 | 0.8 | 0.842 | 0.441 | 0.582 | 0.457 | 0.374 | 0.699 | 0.87 | 0.782 | 0.849 | 0.869 | 0.448 | 0.494 | 0.498 | 0.322 |  | 0.535
11 | LXF-289 | 0.535 | 0.49 | 0.524 | 0.528 | 0.43 | 0.21 | 0.181 | 0.121 | 0.177 | 0.905 | 0.989 | 0.952 | 0.978 | 0.914 | 0.971 | 0.957 | 0.991 | 0.956 | 0.0979 | 1.04
12 | NCI-H522 | 0.818 | 0.698 | 0.757 | 0.631 | 0.62 | 0.83 | 0.803 | 0.671 | 0.664 |  |  |  |  |  |  |  |  |  | 0.624 | 
13 | NCI-H1299 |  |  |  |  |  |  |  |  |  | 1.06 | 1.1 | 1.07 | 1.12 | 0.679 | 1.01 | 0.899 | 1.04 | 1.04 |  | 0.975
14 | NCI-H1623 | 0.586 | 0.534 | 0.591 | 0.607 | 0.565 | 0.562 | 0.576 | 0.38 | 0.51 | 0.797 | 0.757 | 0.855 | 0.955 | 0.899 |  |  |  |  | 0.629 | 
15 | NCI-H1650 | 0.415 | 0.355 | 0.449 | 0.386 | 0.26 | 0.34 | 0.261 | 0.283 | 0.314 | 1.29 | 1.49 | 0.879 | 1 | 0.604 |  |  |  |  | 0.372 | 
16 | NCI-H1703 |  |  |  |  |  |  |  |  |  | 0.285 | 0.351 | 0.329 | 0.343 | 0.272 | 0.286 | 0.461 | 0.372 | 0.363 |  | 0.289
17 | NCI-H1792 | 0.191 |  | 0.318 | 0.267 | 0.121 | 0.805 |  | 0.529 | 0.809 |  |  |  |  |  | 0.708 | 0.664 | 0.575 | 0.837 | 0.817 | 0.734
18 | NCI-H2342 | 0.568 | 0.565 | 0.615 | 0.512 | 0.51 | 0.314 | 0.299 | 0.365 | 0.313 | 0.928 | 1.03 | 1.16 | 1.01 | 1.07 |  |  |  |  | 0.33 | 
19 | SW 900 | 0.625 | 0.576 | 0.439 | 0.502 | 0.383 | 0.603 | 0.496 | 0.568 | 0.327 | 0.899 | 0.761 | 0.811 | 0.893 | 0.759 |  |  |  |  | 0.426 | 
